Results published in PubChem BioAssay AID1845209 (Molecular Pharmacology Branch, DTP, NCI, 2023).
pIC50: −log10 of the molar value.

Test system: NCI-H211 tumor spheroids, viability percent test/control
Test: Anticancer human tumor NCI-H211 cell line growth inhibition;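 note: spheroids exposed to agents for seven days before readout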
Conditions: spheroids with HUVEC and MSC; for pIC50: curve of first compound; for viability, T/C: stronger effect = lower value
Source text: Multicellular complex tumor spheroid response to DNA repair inhibitors in combination with DNA-damaging drugs
This study explores the anticancer activities of DNA-damaging drugs and inhibitors of DNA damage repair, both as single agents and in combinations. Complex tumor spheroids comprised of malignant cells, endothelial cells and mesenchymal stem cells served as an in vitro model for human solid tumors. This model system incorporates physiologically relevant features and patient-derived or established malignant cell lines with clinically relevant genetic alterations from many tumor types. Twenty-six patient-derived or established malignant cell lines were evaluated representing sarcoma, melanoma, small cell lung cancer (SCLC), non-small cell lung cancer (NSCLC), as well as bladder, ovarian and pancreatic cancers. The concentration ranges selected for each drug and investigational agent were based upon clinically achievable concentrations if the clinical Cmax of the agent was known.
Compounds. The drugs and compounds olaparib (NSC753686), talazoparib (NSC767125), berzosertib (NSC777718), elimusertib (NSC800525), nedisertib (NSC802822), VX-984 (NSC792969), AZD-1390 (NSC803789), temozolomide (NSC362856), topotecan (NSC609699), trabectedin (NSC813783), staurosporine (NSC755774), and gemcitabine (NSC613327) were obtained from the National Cancer Institute (NCI) Developmental Therapeutics Program Chemical Repository. The FDA-approved anticancer drug set is available from the Developmental Therapeutics Program at https://dtp.cancer.gov/organization/dscb/obtaining/available_plates.htm. […] The stock solutions were prepared in dimethyl sulfoxide (DMSO, Sigma-Aldrich, St. Louis, MO, cat. D2650) at 400-fold the tested concentration and stored at -70 degrees C. Prior to their use, the stock solutions were diluted in fresh medium and the final DMSO concentration in the assay was 0.25% (v/v). All drugs and investigational agents were tested over a range starting from a high concentration at or near the clinical Cmax and decreasing in half-log increments. If the clinical Cmax for an agent had not been determined, the highest concentration tested was 10 microM.
Cell Lines. The patient-derived cancer cell (PDC) lines: 156681-154-R-J1-PDC, 283228-195-R-J1-PDC, 287954-098-R-J1-PDC, 292921-168-R-J2-PDC, 349418-098-R-PDC, 425362-245-T-J1-PDC, 556581-035-R-J1-PDC, and BL0293-F563-PDC were received from the NCI Patient-Derived Models Repository (PDMR, https://pdmr.cancer.gov). The established cell lines HS-SY-2 (RRID:CVCL_8719), MPNST, and SYO-1 (RRID:CVCL_7146) were obtained from the Sloan Kettering Institute. The alveolar soft parts sarcoma cell line ASPS-1 (RRID:CVCL_S738) was established at the NCI and grown from internal seed stocks. The following established cell lines were purchased from the American Type Culture Collection (ATCC, Manassas, VA): G-401 (ATCC, cat. CRL-1441, RRID:CVCL_0270), SW982 (ATCC, cat. HTB-93, RRID:CVCL_1734), VA-ES-BJ (ATCC, cat. CRL-2138, RRID:CVCL_1785), NCI-H719 (ATCC, cat. CRL-5837, RRID:CVCL_1582), NCI-H196 (ATCC, cat. CRL-5823, RRID:CVCL_1509), NCI-H841 (ATCC, cat. CRL-5845, RRID:CVCL_1595), NCI-H1618 (ATCC, cat. CRL-5879, RRID:CVCL_1480), NCI-H1876 (ATCC, cat. CRL-5902, RRID:CVCL_1503), DMS 114 (ATCC, cat. CRL-2066; RRID:CVCL_1174), NCI-H211 (ATCC, cat. CRL-5824; RRID:CVCL_1529), and SW 1271 (ATCC, cat. CRL-2177, RRID:CVCL_1716). The small cell lung cancer cell line COR-L88 was purchased from Sigma-Aldrich (cat. 92031917-1VL, RRID:CVCL_1141). The non-small cell lung cancer cell lines NCI-H226 (RRID:CVCL_1544) and NCI-H322M (RRID:CVCL_1557) were established at the NCI and grown from internal seed stocks. Pooled donor human umbilical vein endothelial cells (HUVEC, Lonza, cat. CC-2519) and human mesenchymal stem cells (hMSC, Lonza, cat. PT-2501) were purchased from Lonza (Walkersville, MD).
Cell Culture. All cells were maintained in an incubator at 37 degrees C and 5% CO2 with 95% humidity. […]

In the case of Cc1cc(C)c(CNC(=O)c2cc(-c3ccc(CN4CCOCC4)cc3)cc3c2cnn3C2CCCC2)c(=O)[nH]1 + CC[C@@]1(O)C(=O)OCc2c1cc1n(c2=O)Cc2cc3c(CN(C)C)c(O)ccc3nc2-1, the pIC50 (second compound 0.003 µM) was 5.72, the pIC50 (second compound 0.00949 µM) was over 7.50 and the pIC50 (second compound 0.03 µM) was over 7.50. For the same compound, the pIC50 (second compound 0.0949 µM) was over 7.50, the pIC50 (second compound 0.3 µM) was over 7.50 and the viability, T/C (second compound 0.003 µM, first compound 0.0316 µM) was 83.3%. The viability, T/C (second compound 0.003 µM, first compound 0.1 µM) was 78.6%, the viability, T/C (second compound 0.003 µM, first compound 0.316 µM) was 74.2% and the viability, T/C (second compound 0.003 µM, first compound 1 µM) was 58.4%. It also gave a viability, T/C (second compound 0.003 µM, first compound 3.16 µM) of 42.8%, a viability, T/C (second compound 0.003 µM, first compound 10 µM) of 24.6% and a viability, T/C (second compound 0.00949 µM, first compound 0.0316 µM) of 10.6%. It also gave a viability, T/C (second compound 0.00949 µM, first compound 0.1 µM) of 8.26%, a viability, T/C (second compound 0.00949 µM, first compound 0.316 µM) of 5.43% and a viability, T/C (second compound 0.00949 µM, first compound 1 µM) of 3.96%. It also gave a viability, T/C (second compound 0.00949 µM, first compound 3.16 µM) of 2.11%, a viability, T/C (second compound 0.00949 µM, first compound 10 µM) of 1.31% and a viability, T/C (second compound 0.03 µM, first compound 0.0316 µM) of 0.94%. The viability, T/C (second compound 0.03 µM, first compound 0.1 µM) was 1.14%, the viability, T/C (second compound 0.03 µM, first compound 0.316 µM) was 1.13% and the viability, T/C (second compound 0.03 µM, first compound 1 µM) was 0.98%. The viability, T/C (second compound 0.03 µM, first compound 3.16 µM) was 1.02%, the viability, T/C (second compound 0.03 µM, first compound 10 µM) was 0.92% and the viability, T/C (second compound 0.0949 µM, first compound 0.0316 µM) was 1.01%. The viability, T/C (second compound 0.0949 µM, first compound 0.1 µM) was 1.06%, the viability, T/C (second compound 0.0949 µM, first compound 0.316 µM) was 0.94% and the viability, T/C (second compound 0.0949 µM, first compound 1 µM) was 1.17%. For the same compound, the viability, T/C (second compound 0.0949 µM, first compound 3.16 µM) was 1.46%, the viability, T/C (second compound 0.0949 µM, first compound 10 µM) was 1.47% and the viability, T/C (second compound 0.3 µM, first compound 0.0316 µM) was 1.21%. It also gave a viability, T/C (second compound 0.3 µM, first compound 0.1 µM) of 1.42%, a viability, T/C (second compound 0.3 µM, first compound 0.316 µM) of 1.39% and a viability, T/C (second compound 0.3 µM, first compound 1 µM) of 1.4%. The viability, T/C (second compound 0.3 µM, first compound 3.16 µM) was 1.35% and the viability, T/C (second compound 0.3 µM, first compound 10 µM) was 1.52%.
Compound Cc1sc2c(c1C)C(c1ccc(Cl)cc1)=NC(CC(=O)Nc1ccc(O)cc1)c1nnc(C)n1-2 (stereo not given) + CC[C@@]1(O)C(=O)OCc2c1cc1n(c2=O)Cc2cc3c(CN(C)C)c(O)ccc3nc2-1 has a pIC50 (second compound 0.003 µM) of over 8.02, a pIC50 (second compound 0.00949 µM) of over 8.02 and a pIC50 (second compound 0.03 µM) of over 8.02. The pIC50 (second compound 0.0949 µM) was over 8.02, the pIC50 (second compound 0.3 µM) was over 8.02 and the viability, T/C (second compound 0.003 µM, first compound 0.00949 µM) was 30.2%. The viability, T/C (second compound 0.003 µM, first compound 0.03 µM) was 3.07%, the viability, T/C (second compound 0.003 µM, first compound 0.0949 µM) was 0.77% and the viability, T/C (second compound 0.003 µM, first compound 0.3 µM) was 0.53%. It also gave a viability, T/C (second compound 0.003 µM, first compound 0.949 µM) of 0.42%, a viability, T/C (second compound 0.003 µM, first compound 3 µM) of 0.44% and a viability, T/C (second compound 0.00949 µM, first compound 0.00949 µM) of 3.11%. For the same compound, the viability, T/C (second compound 0.00949 µM, first compound 0.03 µM) was 0.89%, the viability, T/C (second compound 0.00949 µM, first compound 0.0949 µM) was 0.89% and the viability, T/C (second compound 0.00949 µM, first compound 0.3 µM) was 0.57%. The viability, T/C (second compound 0.00949 µM, first compound 0.949 µM) was 0.46%, the viability, T/C (second compound 0.00949 µM, first compound 3 µM) was 0.57% and the viability, T/C (second compound 0.03 µM, first compound 0.00949 µM) was 0.97%. It also gave a viability, T/C (second compound 0.03 µM, first compound 0.03 µM) of 0.72%, a viability, T/C (second compound 0.03 µM, first compound 0.0949 µM) of 0.81% and a viability, T/C (second compound 0.03 µM, first compound 0.3 µM) of 0.54%. For the same compound, the viability, T/C (second compound 0.03 µM, first compound 0.949 µM) was 0.57%, the viability, T/C (second compound 0.03 µM, first compound 3 µM) was 0.55% and the viability, T/C (second compound 0.0949 µM, first compound 0.00949 µM) was 0.76%. It also gave a viability, T/C (second compound 0.0949 µM, first compound 0.03 µM) of 0.8%, a viability, T/C (second compound 0.0949 µM, first compound 0.0949 µM) of 0.73% and a viability, T/C (second compound 0.0949 µM, first compound 0.3 µM) of 0.79%. The viability, T/C (second compound 0.0949 µM, first compound 0.949 µM) was 0.59%, the viability, T/C (second compound 0.0949 µM, first compound 3 µM) was 0.6% and the viability, T/C (second compound 0.3 µM, first compound 0.00949 µM) was 0.94%. For the same compound, the viability, T/C (second compound 0.3 µM, first compound 0.03 µM) was 0.9%, the viability, T/C (second compound 0.3 µM, first compound 0.0949 µM) was 0.83% and the viability, T/C (second compound 0.3 µM, first compound 0.3 µM) was 0.85%. The viability, T/C (second compound 0.3 µM, first compound 0.949 µM) was 0.54% and the viability, T/C (second compound 0.3 µM, first compound 3 µM) was 0.51%.
